Values quoted from earlier work in patent publication US9133180B2, “Aurora and FLT3 kinases modulators” (SAREUM LIMITED, priority 2012, dated 2015).

What was measured:
[1] = test system: SW620, HCT-116, Colo205, A549, Calu-6 or HL-60 tumour xenografts; conditions: HL-60 xenograft; cited from earlier work
[2] = test system: treatment-refractory primary Acute Myelogenous Leukemia (AML) cells; conditions: cells from patients; cited from earlier work

Row | Structure (SMILES) | complete tumour regression (animals) [1] | killing of primary AML cells [2]
1 | CCN(CCCOc1ccc2c(Nc3cc(CC(=O)Nc4cccc(F)c4)n[nH]3)ncnc2c1)CCOP(=O)(O)O [AZD1152] | 8 of 11 | –
2 | Cc1cc(Nc2cc(N3CCN(C)CC3)nc(Sc3ccc(NC(=O)C4CC4)cc3)n2)n[nH]1 [VX-680] | – | potently killed
